Measurements reported in patent US11369609B2, “Small molecule Wnt inhibitor as treatment for dyslipidemia” (Yale University, priority 2019, dated 2022).
“Also recorded” adds a separate entry of the source.

Tests used:
canonical Wnt signaling [1] = assay: Atherosclerosis in high fat diet-fed Apoe−/− and DKO TCF/Lef-LacZ mice; format: in vivo
Description: Apoe −/− and endothelial GR KO/Apo E KO double knockout (DKO) mice were fed a high fat diet containing 1.25% cholesterol (Research Diets) for the time indicated. In some experiments, animals of both genotype were bred to the BAT-GAL (ß-catenin/TCF/LEF) reporter transgenic mouse. Mice were sacrificed and the aortas removed. Aortas were stained with X-galactosidase (Sigma-Aldrich) according to the manufacturer's instructions. In other aortas, total RNA was extracted and cDNA was made as described above. The custom PCR array was used to evaluate pathways of interest as described. All studies were performed according to a protocol approved by the Institutional Care and use Committee at Yale University School of Medicine and were consistent with the National Institutes of Health Guidelines for the Care of Laboratory Animals.
Mice were fasted for 12-15 hours and blood was collected by retro-orbital venous puncture. Whole blood was spun down and plasma stored at −80° C. Total cholesterol and triglyceride levels were measured enzymatically by kits from Wako and Sigma, respectively, according to the manufacturer's instructions.
At the completion of high-fat diet feeding mice were anesthetized and euthanized. Mouse hearts were perfused with PBS and then 4% paraformaldehyde (PFA) and the aortas and were dissected out using a dissecting microscope and maintained in PFA overnight. Whole aortas were stained with Oil Red O (Sigma) to quantify lesion area. Oil Red O stock solution (35 ml, 0.2% weight/volume in methanol) was mixed with 10 ml 1 M NaOH and filtered. Aortas were briefly rinsed in 78% methanol, incubated in Oil Red O for 45 minutes and then destained in 78% methanol for 5 minutes and mounted on microscopic slides. Lipid staining and lesion size were quantified by averaging six sections from the same mouse using the IMAGE J program.
In order to visualize the activation of canonical Wnt signaling, Apoe^−/−, GR^fl/fl, Tie2 Cre−; TCF/Lef-LacZ (Apoe^−/−) mice were bred with Apoe^−/−, GR^fl/fl, Tie2 Cre+; TCF/Lef-LacZ (DKO) mice. Apoe^−/− and DKO mice were fed a high fat diet (HFD) for 12 weeks. The Wnt inhibitor (wnti) LGK974 at a dose of 5 mg/kg body weight, or vehicle, was administered 6 days/week by oral gavage from 4-12 weeks. The aortas of vehicle-treated control animals and wnti-treated animals (n=6-7/group) were stained for LacZ (FIG. 11B). A LacZ(−) aorta was included as a control. […] Aortic area stained is quantified in the corresponding graph (FIG. 11B). Body weight of the animals of both genotypes with and without Wnti treatment was measured. […] Triglycerides, total cholesterol and HDL cholesterol were measured after 12 weeks of diet feeding in animals of both genotypes in the presence of absence of Wnti. […] Lipid deposition in aortas of wnti- or vehicle-treated Apoe^−/− and DKO treated mice was analyzed by Oil Red O staining. Atherogenic lesion area was calculated by using the Image J program. […] Masson Trichrome and H&E staining was performed in the brachiocephalic artery of Wnti- or sham-treated Apoe^−/− and DKO treated mice (FIG. 11F). Lesion size was measured using Image J program.

canonical Wnt signaling [2] = assay: Plasma cytokine array analysis (Luminex) in wnti-treated diabetic mice; format: in vivo
Protocol: FIG. 22. […] Cytokines and chemokines were measured in plasma by using the cytokine array analysis (Luminex). The plasma of wnti-treated diabetic mice was analyzed for cytokine array analysis. N=5/group. Data are shown as mean±SEM. Tukey test was used for the analysis of statistical significance. *p<0.05.
To determine whether inhibition of the Wnt signaling pathway could ameliorate the observed fibrosis, LGK974, a small molecule inhibitor of all secreted Wnts (43), was utilized. FIGS. 21A-21B depict the schematic diagram showing the experimental protocol for LGK974 treatment in diabetic CD-1 and UUO mice.

kidney endothelial cells = assay: Fatty acid oxidation (14CO2 release from [14C]palmitate) in isolated kidney endothelial cells; format: in vivo, mice; conditions: diabetic CD-1 mice, Wnt inhibitor
Protocol: Endothelial cells from the kidneys of non-diabetic and diabetic mice were isolated using a standardized kit (Miltenyl Biotech, USA) by following the manufacturer's instructions. Briefly, kidneys were isolated and minced into small pieces. Using a series of enzymatic reactions by treating the tissue with trypsin and Collagenase type I solution, a single cell suspension was created. The pellet was dissolved with CD31 magnetic beads and the CD31-labelled cells were separated on a magnetic separator. The cells were further purified on a column. Cell number was counted by hemocytometer and cells were plated on 0.1% gelatin coated Petri dishes.
Cultured isolated kidney endothelial cells were incubated with medium containing 0.75 mmol/L palmitate (conjugated to 2% free fatty acid-free BSA/[^14C] palmitate at 2 μCi/mL) for 2 h. One mL of the culture medium was transferred to a sealable tube, the cap of which housed a Whatman filter paper disc. ^14CO2 trapped in the media was then released by acidification of media using 60% perchloric acid. Radioactivity that had become adsorbed onto the filter discs was then quantified by liquid scintillation counting.
It is increasingly recognized that defects in central metabolism contribute to kidney fibrosis (69, 76). Defective FA metabolism in EC leads to EndMT events (77). To investigate whether FA metabolism was deranged in the model, radiolabeled [^14C]palmitate uptake experiments were performed in isolated EC from mouse kidneys. FA uptake was higher in isolated EC from the diabetic kidneys of the more fibrotic strain (diabetic CD-1) when compared to kidney EC from the less-fibrotic strain (diabetic C57BL/6). […] FA oxidation (FAO) was also assessed by measuring the ^14CO2 release from radiolabeled [^14C]palmitate in cultured EC isolated from kidneys. […] In the next set of experiments, diabetic CD-1 mice were treated with the FA synthase inhibitor C75, the FAO inhibitor etomoxir, the PPARα agonist fenofibrate, and the cholesterol-lowering drug simvastatin for 4 weeks. […] (FIG. 23A). Fenofibrate and C75 restored the level of GR protein in CD31 positive cells, whereas etomoxir and simvastatin suppressed it (FIG. 23B).

[3] = 5 mg/kg oral gavage 6 days/week, weeks 4-12 of HFD, both genotypes

For `Cc1cc(-c2ncc(CC(=O)Nc3ccc(-c4cnccn4)cn3)cc2C)ccn1` [LGK974], the “atherosclerosis prognosis / atherogenic phenotype” value (canonical Wnt signaling [1]; 5 mg/kg oral gavage 6 days/week, weeks 4-12 of HFD) was “significantly improves the atherogenic phenotype; also recorded: surprising improvement in atherosclerosis prognosis”, the “activation of canonical Wnt signaling (LacZ staining in aortas)” value (canonical Wnt signaling [1]; [3]) was “clearly attenuated” and the body weight (canonical Wnt signaling [1]; [3]) was “no weight loss”. For the same compound, the “lesion size in brachiocephalic arteries” value (canonical Wnt signaling [1]; Masson Trichrome and H&E staining) was “dramatically reduced lesion size”, the cholesterol (canonical Wnt signaling [1]; after 12 weeks of HFD, both genotypes) was “dramatic reduction in cholesterol; also recorded: enormous” and the “lipid deposition in aortas (Oil Red O staining)” value (canonical Wnt signaling [1]; both genotypes) was “dramatic reduction in lipid deposition”. The “decrease in cholesterol levels” value (canonical Wnt signaling [1]; in vivo use in atherogenic mouse model) was “about 50%”, the “H&E and Oil Red O staining in the aortic root of heart sections” value (canonical Wnt signaling [1]; mouse, in vivo) was “histological improvement” and the “cytokine- and chemokine reprogramming in plasma” value (canonical Wnt signaling [2]) was “disrupts the cytokine- and chemokine reprogramming”. The “plasma CCL4 level” value (canonical Wnt signaling [2]) was “significantly suppressed”, the “plasma CCL5 level” value (canonical Wnt signaling [2]) was “elevating” and the “plasma G-CSF level” value (canonical Wnt signaling [2]) was “significantly suppressed”. For the same compound, the “plasma IL-1β level” value (canonical Wnt signaling [2]) was “significantly suppressed”, the “plasma IL-6 level” value (canonical Wnt signaling [2]) was “significantly suppressed” and the “plasma IL-10 level” value (canonical Wnt signaling [2]) was “significantly suppressed”. The “plasma MCP-1 level” value (canonical Wnt signaling [2]) was “significantly suppressed”, the “plasma TNFα level” value (canonical Wnt signaling [2]) was “significantly suppressed” and the “level of FAO in isolated kidney EC” value (kidney endothelial cells) was “able to restore the level of FAO”.
